Positions count from the first letter of the chain named. Read-outs that look alike come from different tables or passages of the source.

In one assay the target is T1, serotonin 5-HT1A (Rattus norvegicus, UniProt P19327).
T1 construct: serotonin 5-HT1A (rat cerebral cortex); from tissue; host or cells: rat cerebral cortex
T1 sequence (P19327 1-422): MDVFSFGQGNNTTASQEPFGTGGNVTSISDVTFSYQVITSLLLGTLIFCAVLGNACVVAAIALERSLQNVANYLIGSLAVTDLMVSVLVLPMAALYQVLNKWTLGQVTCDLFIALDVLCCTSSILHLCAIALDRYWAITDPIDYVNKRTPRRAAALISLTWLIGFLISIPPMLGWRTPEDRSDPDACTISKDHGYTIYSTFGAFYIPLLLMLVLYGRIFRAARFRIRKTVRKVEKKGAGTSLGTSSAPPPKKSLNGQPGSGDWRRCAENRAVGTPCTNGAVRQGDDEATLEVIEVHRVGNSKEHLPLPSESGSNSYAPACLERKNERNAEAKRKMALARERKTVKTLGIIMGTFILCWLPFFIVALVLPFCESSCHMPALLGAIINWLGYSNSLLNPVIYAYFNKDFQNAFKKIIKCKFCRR
The assay is described as follows: Competitive radioligand binding assay, serotonin 5-HT1A.

Assay [1] deals with T2, Sigma 1 (Cavia porcellus, UniProt Q60492). The assay is described as follows: Competitive radioligand binding assay, Sigma 1. Also on record: species or system Guinea pig.
The next assay addresses hNav1.5 (Homo sapiens, UniProt Q14524). The assay is described as follows: Ion channel profiling, IonFlux HT automated patch clamp, hNav1.5. On the technique in general: The patch-clamp technique gives a direct electrical read-out from membranes.
The target of assay [2] is Serotonin 5-HT7 (Human recombinant) (Homo sapiens, UniProt P34969). Nature of the assay: Competitive radioligand binding assay, serotonin 5-HT7.
The next assay has as its system DBA/1 mice. Conditions: comparator value, no test described; cited from earlier work.
Assay [3] deals with T2, Sigma 1. The assay is described as follows: Sigma-1 receptor tissue bioassay, guinea pig vas deferens, antagonist activity ((+)SKF-10047-induced response). The arrangement: Segments of guinea pig vas deferens were suspended in 20-ml organ baths; from tissue; host or cells: guinea pig vas deferens. Conditions: field-stimulated guinea pig vas deferens, (+)SKF-10047 100 μM.
The target of assay [4] is T3, human β-2 adrenergic receptor (Homo sapiens, UniProt P07550). Nature of the assay: β-2 adrenergic receptor antagonist assay, agonist-induced cAMP production (HTRF). The format is cell-based. The conditions noted are these: inhibition of isoproterenol-induced cAMP production. Also on record: expressed in transfected cells; host or cells: HEK-293. How it is done: Transfected HEK-293 cells expressing human β-1 adrenergic receptor, human β-2 adrenergic receptor, and human β3 adrenergic receptor, respectively, were prepared using cloned human cDNA. See H FRIELLE, T., COLLINS, S., DANIEL, K. W., CARON, M. G., LEFKOWITZ, R. J., KOBILKA, B. K. (1987), Cloning of the cDNA for the human beta1-adrenergic receptor, Proc. Natl. Acad. Sci. U.S.A., 84,7920, and BAKER, J. G. (2005) The selectivity of Beta-adrenoreceptor antagonists at the human Beta1, Beta2 and Beta3 adrenoreceptor, Brit.
Transfected cells were suspended in HBSS buffer (Invitrogen) complemented with 20 mM HEPES (pH 7.4) and 500 μM IBMX. […] The cells were then distributed in 96 well microplates (see FIG. 15 for plating densities).
After plating, the cells were induced by adding reference agonist. See FIG. 15 for reference agonists and concentrations used for each assay. […] The cells were then incubated 30 minutes at room temperature.
Subsequently, the cells were lysed and a fluorescence acceptor (D2-labeled cAMP) and a fluorescence donor (anti-cAMP antibody labeled with europium cryptate) were added to the wells.
Standard reference antagonists were tested in each experiment at several concentrations to generate a concentration-response curve from which its IC50 value is calculated.
EC50 values (concentration producing a half-maximal response) and IC50 values (concentration causing a half-maximal inhibition of the control agonist response) were determined by non-linear regression analysis of the concentration-response curves generated with mean replicate values using Hill equation curve fitting: […]
For the antagonists, the apparent dissociation constants (KB) were calculated using the modified Cheng Prusoff equation:
KB=IC50/[1+(A/EC50A)], where
(cAMP levels reflect the balance of adenylyl cyclase and phosphodiesterase activity.)

Assay [5] deals with T2, Sigma 1. The assay is described as follows: Sigma-1 receptor tissue bioassay, guinea pig vas deferens, agonist activity (twitch contraction). The arrangement: Segments of guinea pig vas deferens were suspended in 20-ml organ baths; from tissue; host or cells: guinea pig vas deferens. Conditions: field-stimulated guinea pig vas deferens, compound alone.
Assay [6] addresses Serotonin 5-HT2B (Human recombinant) (Homo sapiens, UniProt P41595). The assay is described as follows: Competitive radioligand binding assay, serotonin 5-HT2B.
Assay [7] has as its system Swiss OF-1 mice. The assay is described as follows: Step-through passive avoidance, dizocilpine-induced deficit. It is filed as in vivo, mouse. Conditions: IP; 0.1 mg/kg not active.
Assay [8] concerns Swiss OF-1 mice. Nature of the assay: Spontaneous alternation in the Y-maze, dizocilpine-induced deficit. It is filed as in vivo, mouse. Conditions: IP; 0.1 mg/kg not active.
Assay [9] relates to Swiss OF-1 mice. The assay is described as follows: Forced swim test (FST) in mice. Conditions: acute IP injection, lower doses not active.
The test system of the next assay is rats. The conditions noted are these: cited from earlier work.
Assay [10] concerns Swiss OF-1 mice. The conditions noted are these: female BKTO mice, O'Neill & Conway (2001); cited from earlier work.
Another assay concerns the target T4, Muscarinic M1 (Rattus norvegicus, UniProt P08482).
T4 construct: Muscarinic M1 (Rat cerebral cortex); from tissue; host or cells: rat cerebral cortex
T4 sequence (P08482 1-460): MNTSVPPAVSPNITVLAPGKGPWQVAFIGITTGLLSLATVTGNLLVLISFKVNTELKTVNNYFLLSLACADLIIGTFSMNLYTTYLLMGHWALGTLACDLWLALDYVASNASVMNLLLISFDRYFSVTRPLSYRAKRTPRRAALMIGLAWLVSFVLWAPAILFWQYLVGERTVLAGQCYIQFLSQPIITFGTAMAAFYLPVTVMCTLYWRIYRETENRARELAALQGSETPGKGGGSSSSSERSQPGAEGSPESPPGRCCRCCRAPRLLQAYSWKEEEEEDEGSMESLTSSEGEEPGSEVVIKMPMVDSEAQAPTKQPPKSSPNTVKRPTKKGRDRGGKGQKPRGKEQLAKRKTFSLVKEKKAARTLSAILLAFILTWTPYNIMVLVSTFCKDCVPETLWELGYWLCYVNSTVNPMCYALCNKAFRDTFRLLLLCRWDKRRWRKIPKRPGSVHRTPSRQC
Nature of the assay: Competitive radioligand binding assay, muscarinic M1.

Assay [11] deals with T5, β-Adrenergic (Non-selective).
T5 construct: β-1 adrenergic; other: test article 1×10^−6 and 1×10^−5 mol/L; rat brain
The assay is described as follows: Competitive radioligand binding assay, β-adrenergic (non-selective). The arrangement: species or system Rat.

The next assay relates to T6, Na channel.
T6 construct: other: test article 1×10^−6 and 1×10^−5 mol/L; rat brain
Nature of the assay: Competitive radioligand binding assay, Na channel. The arrangement: species or system Rat.

For another assay, the system named is Sigma non-selective. Nature of the assay: Competitive radioligand binding assay, sigma non-selective. Also on record: species or system Guinea pig.
Assay [12] concerns the target T3, human β-2 adrenergic receptor. The assay is described as follows: Competitive radioligand binding assay, β2-adrenergic.
Assay [13] deals with T7, Human muscarinic M1 receptor (Homo sapiens, UniProt P11229).
T7 construct: expressed in transfected cells; host or cells: CHO
T7 sequence (P11229 1-460): T4 sequence (P08482 1-460) with V5A, S254T, S309P, K320R, G337A, V413I
It is filed as cell-based. Conditions: acetylcholine-induced Ca2+ mobilization, CHO cells.
Procedure: After plating, a fluorescent probe (Fluo4 NW, Invitrogen), mixed with probenicid in HBSS buffer (Invitrogen) complemented with 20 mM Hepes (Invitrogen) (pH 7.4), was added into each well and equilibrated with the cells for 60 min at 37° C., followed by a second incubation for 15 min at 22° C.
Thereafter, the assay plates were positioned in a microplate reader (CellLux, PerkinElmer). After a 5-min incubation, 3 nM acetylcholine was added to all except the basal control wells to a total reaction volume of 100 uL, and changes in fluorescence intensity which vary proportionally to the free cytosolic Ca2+ ion concentration, were measured.
The stock solutions were then diluted to [10×] in HBSS and 0.1% BSA just prior to use. Maximum tolerable DMSO concentration was 0.3%.

The mark [14] stands for this setting: Example 3, Ki=IC50/(1+L/Kd), IC50 expressed in mol/L, read-out: Ki, 5-HT1A.
[15] abbreviates: Example 2, seven concentrations.
Where [16] appears, read: test article 1×10^−6 and 1×10^−5 mol/L, rat cerebral cortex.
Setting [17] is: test article 1×10^−6 and 1×10^−5 mol/L, rat brain.

T2 sequence (Q60492 whole entry): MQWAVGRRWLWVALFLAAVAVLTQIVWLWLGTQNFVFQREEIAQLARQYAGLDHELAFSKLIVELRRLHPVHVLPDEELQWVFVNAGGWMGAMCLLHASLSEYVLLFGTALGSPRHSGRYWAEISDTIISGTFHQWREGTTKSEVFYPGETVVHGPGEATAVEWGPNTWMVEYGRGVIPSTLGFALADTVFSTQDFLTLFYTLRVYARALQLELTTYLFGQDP
T3 sequence (P07550 whole entry): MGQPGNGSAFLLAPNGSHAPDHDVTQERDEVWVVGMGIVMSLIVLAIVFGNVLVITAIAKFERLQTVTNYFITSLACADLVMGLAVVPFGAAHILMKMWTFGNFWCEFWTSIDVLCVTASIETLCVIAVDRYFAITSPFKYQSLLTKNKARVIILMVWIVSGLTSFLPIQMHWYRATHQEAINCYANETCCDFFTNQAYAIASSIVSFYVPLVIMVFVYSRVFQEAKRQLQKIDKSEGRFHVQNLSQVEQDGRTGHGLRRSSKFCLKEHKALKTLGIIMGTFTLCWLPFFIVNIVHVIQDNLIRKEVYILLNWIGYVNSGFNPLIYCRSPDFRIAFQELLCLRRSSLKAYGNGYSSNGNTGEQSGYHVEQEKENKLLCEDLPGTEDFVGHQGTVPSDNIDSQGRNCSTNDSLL
Chain of Serotonin 5-HT7 (Human recombinant) (P34969 whole entry): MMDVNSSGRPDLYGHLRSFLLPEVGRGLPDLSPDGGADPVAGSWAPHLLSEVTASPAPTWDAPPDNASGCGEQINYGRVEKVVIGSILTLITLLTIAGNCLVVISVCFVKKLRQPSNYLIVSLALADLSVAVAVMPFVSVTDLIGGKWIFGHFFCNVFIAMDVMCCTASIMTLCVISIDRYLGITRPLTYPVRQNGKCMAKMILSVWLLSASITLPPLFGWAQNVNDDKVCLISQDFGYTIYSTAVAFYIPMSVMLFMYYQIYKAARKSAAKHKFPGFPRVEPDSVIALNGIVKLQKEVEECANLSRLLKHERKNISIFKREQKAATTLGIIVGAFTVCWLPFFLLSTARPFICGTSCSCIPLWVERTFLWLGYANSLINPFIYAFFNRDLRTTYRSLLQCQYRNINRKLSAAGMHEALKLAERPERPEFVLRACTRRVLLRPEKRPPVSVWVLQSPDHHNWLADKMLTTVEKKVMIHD
Chain of Serotonin 5-HT2B (Human recombinant) (P41595 whole entry): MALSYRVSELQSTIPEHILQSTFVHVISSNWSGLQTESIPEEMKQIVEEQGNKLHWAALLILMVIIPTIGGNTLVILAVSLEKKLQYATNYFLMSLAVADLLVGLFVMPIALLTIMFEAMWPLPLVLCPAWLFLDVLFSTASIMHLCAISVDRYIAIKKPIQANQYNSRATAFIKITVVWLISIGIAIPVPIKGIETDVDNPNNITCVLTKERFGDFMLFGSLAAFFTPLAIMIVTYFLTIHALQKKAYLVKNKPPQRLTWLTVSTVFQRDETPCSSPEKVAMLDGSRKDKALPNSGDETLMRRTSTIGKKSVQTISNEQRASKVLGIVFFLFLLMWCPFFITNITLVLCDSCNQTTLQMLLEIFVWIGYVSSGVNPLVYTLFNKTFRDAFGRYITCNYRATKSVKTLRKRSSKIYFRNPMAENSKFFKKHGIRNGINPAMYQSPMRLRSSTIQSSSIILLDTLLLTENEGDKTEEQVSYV
Chain of hNav1.5 (Q14524 whole entry): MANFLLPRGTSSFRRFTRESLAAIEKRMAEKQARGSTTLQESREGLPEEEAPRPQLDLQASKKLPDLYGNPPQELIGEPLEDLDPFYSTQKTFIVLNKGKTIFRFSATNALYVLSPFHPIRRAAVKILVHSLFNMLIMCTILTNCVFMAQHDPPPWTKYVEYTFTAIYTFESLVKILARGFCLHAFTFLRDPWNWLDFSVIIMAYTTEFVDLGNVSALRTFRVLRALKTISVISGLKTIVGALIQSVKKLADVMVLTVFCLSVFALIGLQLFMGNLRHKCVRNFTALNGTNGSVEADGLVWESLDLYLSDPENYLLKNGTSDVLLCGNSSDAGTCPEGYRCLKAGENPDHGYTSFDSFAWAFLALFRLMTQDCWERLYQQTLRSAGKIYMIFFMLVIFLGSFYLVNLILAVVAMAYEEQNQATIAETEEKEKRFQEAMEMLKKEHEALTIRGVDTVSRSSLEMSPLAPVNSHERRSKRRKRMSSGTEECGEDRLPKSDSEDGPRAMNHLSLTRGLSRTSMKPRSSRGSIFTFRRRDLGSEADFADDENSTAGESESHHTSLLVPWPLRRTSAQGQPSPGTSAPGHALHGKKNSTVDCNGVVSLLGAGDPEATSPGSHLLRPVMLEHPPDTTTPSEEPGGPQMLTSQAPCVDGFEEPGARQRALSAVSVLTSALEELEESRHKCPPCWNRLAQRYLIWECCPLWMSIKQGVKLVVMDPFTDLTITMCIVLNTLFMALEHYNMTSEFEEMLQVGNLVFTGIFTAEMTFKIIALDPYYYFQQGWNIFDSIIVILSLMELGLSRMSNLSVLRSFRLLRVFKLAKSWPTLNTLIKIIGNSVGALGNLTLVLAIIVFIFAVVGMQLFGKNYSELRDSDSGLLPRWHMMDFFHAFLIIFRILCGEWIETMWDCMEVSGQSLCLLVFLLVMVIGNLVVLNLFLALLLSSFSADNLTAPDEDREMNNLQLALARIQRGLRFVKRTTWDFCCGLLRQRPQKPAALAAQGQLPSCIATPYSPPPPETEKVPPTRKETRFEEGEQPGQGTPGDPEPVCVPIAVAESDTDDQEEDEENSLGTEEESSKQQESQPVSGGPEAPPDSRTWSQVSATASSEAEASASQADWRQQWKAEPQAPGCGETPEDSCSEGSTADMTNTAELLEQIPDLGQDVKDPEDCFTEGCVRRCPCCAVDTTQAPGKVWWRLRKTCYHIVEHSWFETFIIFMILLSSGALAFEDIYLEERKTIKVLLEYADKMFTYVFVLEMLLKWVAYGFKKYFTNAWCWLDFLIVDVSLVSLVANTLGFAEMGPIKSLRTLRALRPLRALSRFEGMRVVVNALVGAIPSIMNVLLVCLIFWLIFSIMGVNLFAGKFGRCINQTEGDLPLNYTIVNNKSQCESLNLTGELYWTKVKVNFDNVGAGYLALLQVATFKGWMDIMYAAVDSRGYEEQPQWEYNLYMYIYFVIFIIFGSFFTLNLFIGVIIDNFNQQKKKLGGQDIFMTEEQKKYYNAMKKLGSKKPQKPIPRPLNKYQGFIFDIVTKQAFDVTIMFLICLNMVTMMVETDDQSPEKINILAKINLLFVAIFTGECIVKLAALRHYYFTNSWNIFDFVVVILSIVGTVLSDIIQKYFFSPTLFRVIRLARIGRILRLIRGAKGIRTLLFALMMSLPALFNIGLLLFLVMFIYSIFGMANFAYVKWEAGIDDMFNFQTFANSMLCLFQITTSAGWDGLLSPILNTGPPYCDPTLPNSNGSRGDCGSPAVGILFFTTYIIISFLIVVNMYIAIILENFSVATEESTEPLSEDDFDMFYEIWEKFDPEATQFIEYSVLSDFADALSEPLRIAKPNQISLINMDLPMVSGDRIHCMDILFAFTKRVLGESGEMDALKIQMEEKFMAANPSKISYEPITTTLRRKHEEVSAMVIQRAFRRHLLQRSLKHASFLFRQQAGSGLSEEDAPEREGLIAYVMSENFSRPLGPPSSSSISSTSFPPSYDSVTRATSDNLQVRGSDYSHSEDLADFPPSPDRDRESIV

On to `CCN[C@@H](C)Cc1cccc(C(F)(F)F)c1` [Dexfenfluramine], for which the IC50 at serotonin 5-HT1A is 1290 nM; at Sigma 1 [1], 125 nM; against hNav1.5, more than 30000 nM; in assay [2], 7520 nM. In addition, the results for the Ki (at serotonin 5-HT1A; at Sigma 1 [1]; in assay [2]) were 711 nM, 109 nM and 7100 nM, respectively.
Take `CNCCC(Oc1ccc(C(F)(F)F)cc1)c1ccccc1` (centres unmarked) [fluoxetine]: in the assay with DBA/1 mice, the “ED50, blockade of S-IRA (comparison value)” value is recorded as 22.2 mg/kg.
Consider `C[C@@H]1CN(CCCn2c3ccccc3c3ccccc32)C[C@H](C)N1` [rimcazole], for which the “effect on the (+)SKF-10,047-induced increase in twitch contraction amplitude” value on Sigma 1 [3] was “inhibited”.
As for `CCN[C@@H](C)Cc1cccc(C(F)(F)F)c1` [(+)fenfluramine], the “antagonist activity at the beta-2 adrenergic receptor” value in [4] is listed as “antagonist activity”.
On to `CC(N)Cc1cccc(C(F)(F)F)c1` (single isomer, unassigned; (+)) [(+)norfenfluramine], for which the “effect on twitch contraction amplitude” value at Sigma 1 [5] is “concentration-dependent decrease”. The Ki at serotonin 5-HT1A (setting [14]) is 1140 nM; in assay [6], 242 nM.
Take `Cl.O=C(OCCN1CCOCC1)C1(c2ccccc2)CCCCC1` [PRE-084, 2-(4-Morpholinethyl)-1-phenylcyclohexanecarboxylate hydrochloride]: in the assay with Swiss OF-1 mice [7], the “dose attenuating dizocilpine-induced deficit in passive avoidance response (minimal active dose)” value was 0.3 mg/kg. In addition, the “dose attenuating dizocilpine-induced deficit in spontaneous alternation” value in the assay with Swiss OF-1 mice [8] was 0.3 mg/kg.
Regarding `CC[C@@](C/C=C/c1ccccc1)(c1ccccc1)N(C)CC1CC1.Cl` [Igmesine, (R)-(+)-N-Cyclopropylmethyl-α-ethyl-N-methyl-α-[(2E)-3-phenyl-2-propenyl)benzenemethanamine hydrochloride], the “dose reducing immobility duration in the FST” value with Swiss OF-1 mice [9] is given as 30 mg/kg.
Turning to `Br.CCCN(CCC)C1CCc2cccc(O)c2C1` (centres unmarked) [Compound 8-OH-DPAT, 7-(Dipropylamino)-5,6,7,8-tetrahydronaphthalen-1-ol hydrobromide], the “active dose in forced swim test published previously” value was 0.25 to 0.5 mg/kg in the assay on rats (male CD-COBS rats, Cervo & Samanin (1987)); 0.5 mg/kg in the assay with rats (male Sprague-Dawley rats, Singh & Lucki (1993)); 0.25 to 1 mg/kg in the assay on Swiss OF-1 mice [10]. Further, the “dose reducing immobility duration in the FST” value in the assay on Swiss OF-1 mice [9] came out at 3 mg/kg.
As to `CC(N)Cc1cccc(C(F)(F)F)c1` (centres unmarked) [norfenfluramine], the “binding relative to positive controls” value at Muscarinic M1 (setting [15]) is reported as “moderate binding”; in assay [11] (Example 2, seven concentrations, β-1 adrenergic), “moderate binding”; with Na channel (setting [15]), “moderate binding”; on serotonin 5-HT1A (setting [15]), “moderate binding”; with Sigma non-selective (setting [15]) it was “moderate binding”; in assay [12] (setting [15]), “moderate binding”. The “inhibition of receptor binding (tracer)” value on Muscarinic M1 (setting [16]) is “significantly inhibit”; in assay [11] (setting [17]), “significantly inhibit”; with Na channel (setting [17]) it was “significantly inhibit”; on serotonin 5-HT1A (setting [16]) it was “significantly inhibit”; with Sigma non-selective (test article 1×10^−6 and 1×10^−5 mol/L, guinea pig brain) it was “significantly inhibit”; in [12] (test article 1×10^−6 and 1×10^−5 mol/L, human recombinant), “significantly inhibit”. Further, at Sigma 1 [5] (listed as Racemic norfenfluramine), the “effect on twitch contraction amplitude” value was “concentration-dependent decrease”. In addition, in assay [4], the “antagonist activity at the beta-2 adrenergic receptor” value is reported as “some antagonist activity”. The “activity at the Nav1.5 ion channel” value on hNav1.5 (patch clamp, 0.37-30 μM) is “weak antagonist”. On Sigma 1 [3], the “effect on the (+)SKF-10,047-induced increase in twitch contraction amplitude” value was “concentration-dependent inhibition”.
As for `CC(N)Cc1cccc(C(F)(F)F)c1` (single isomer, unassigned; (-)) [(−)norfenfluramine], at Sigma 1 [5], the “effect on twitch contraction amplitude” value is given as “more complex behavior”. The Ki was determined as 409 nM at serotonin 5-HT1A (setting [14]) and 1200 nM in assay [6]. In addition, the “antagonist activity at the beta-2 adrenergic receptor” value in assay [4] was “antagonist activity”. For the same molecule, the “antagonist activity at the muscarinic M1 receptor” value in [13] is on record as “some antagonist activity”.

By IC50 is commonly meant the midpoint of a concentration-inhibition curve. A word on the Ki: it is the dissociation constant of the complex between target and ligand, obtained from inhibition or displacement.

The record behind these values is patent US20220370381A1 (priority 2016, published 2022).
